Positions of bridges follow the written chain, without caps; N, C: chain ends. Residues, ends and D or L forms follow the SMILES beside them. Chains are numbered I, II in the order given.
What was measured:
Assay type in all cases: cell-based
[1] = test system: Mouse Lewis lung carcinoma (LLC) cells; assay: Proliferation assay of tumor cells (BrdU incorporation), LLC; details: 48 hours, read-out: Inhibitory Activity (IC50 uM) LLC
Description: (§1) The antiproliferative activity of selected peptides of the present invention was assessed on several tumor cell lines. Mouse Lewis lung carcinoma (LLC) cells were routinely cultured to near confluency in DMEM media with 10% FCS added. The cells were trypsinized and plated in a 96-well plate at 5,000 cells per well per 100 μl media supplemented with 2% FCS and antibiotics. MDA-MB-231 cells were routinely cultured to near confluency in advanced DMEM media supplemented with 10% FCS. The cells were allowed to adhere to the plate for at least 12 hours. Then, whole media and various concentrations of peptide, were added to the wells. The cells were cultured for 48 hours at 37 ° C. in a 5% CO2 atmosphere. Cell proliferation was determined using a bromo-deoxyuridine (BrdU) incorporation method as described by the manufacturer. Inhibition of cell proliferation, was assessed by BrdU incorporation.
(§2) The ability of representative peptides of this invention for their ability to inhibit various tumor cells line proliferation are listed below in Table 2.

HUVECs = details: 48 h
Method in brief: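 HUVECs seeded at 5,000 cells/well in EBM with 2% FCS, adhered ≥12 hours, then stimulated with bFGF 10 ng/ml or VEGF 5 ng/ml plus varying peptide concentrations. After 48 hours at 37 ° C, 5% CO2, proliferation inhibition read by BrdU incorporation.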

MDA-MB-231 cells = assay: Proliferation assay of tumor cells (BrdU incorporation), MDA-MB-231; details: MDA-MB-231 proliferation, 48 hours, read-out: Inhibitory Activity (IC50 uM) MDA-MB-231
Description: as §1, §2

Measured: IC50

CC[C@H](C)[C@H](NC(=O)[C@H](CCCNC(=N)N)NC(=O)[C@@H](NC(=O)[C@H](Cc1c[nH]cn1)NC(=O)[C@H](CCC(N)=O)NC(=O)[C@H](CCCNC(=N)N)NC(=O)[C@H](Cc1c[nH]cn1)NC(=O)[C@H](CCCNC(=N)N)NC(=O)[C@H](CCCNC(=N)N)NC(=O)[C@H](CCCNC(=N)N)NC(C)=O)C(C)C)C(=O)N[C@H](C(=O)N[C@@H](Cc1ccccc1)C(=O)NCCCC[C@H](NC(=O)[C@H](Cc1ccccc1)NC(=O)[C@@H](NC(=O)[C@@H](NC(=O)[C@H](CCCNC(=N)N)NC(=O)[C@@H](NC(=O)[C@H](Cc1c[nH]cn1)NC(=O)[C@H](CCC(N)=O)NC(=O)[C@H](CCCNC(=N)N)NC(=O)[C@H](Cc1c[nH]cn1)NC(=O)[C@H](CCCNC(=N)N)NC(=O)[C@H](CCCNC(=N)N)NC(=O)[C@H](CCCNC(=N)N)NC(C)=O)C(C)C)[C@@H](C)CC)[C@@H](C)CC)C(N)=O)[C@@H](C)CC [Peptide 244] (I: Ac-RRRHRQHVRIIFK-NH2 / II: Ac-RRRHRQHVRIIF; amide I:13-II:C)
< 10 µM: all assays above
